From PMC8125234, “Cardiolipin Stabilizes and Increases Catalytic Efficiency of Carnitine Palmitoyltransferase II and Its Variants S113L, P50H, and Y479F” (International Journal of Molecular Sciences, 2021)
Numbering of substitutions follows the chain as printed. “Also recorded” adds a separate entry of the source.

Key:
[1] = target: T1, CPT II variant Y479F (Homo sapiens, UniProt P23786, Y479F); test: Lipid binding assay (membrane lipid strips); details: 0.4 mg enzyme, 100 pmol lipid spots
T1 construct: made in house; host or cells: Escherichia coli BL21Gold DE
T1 sequence (P23786 26-658 Y479F): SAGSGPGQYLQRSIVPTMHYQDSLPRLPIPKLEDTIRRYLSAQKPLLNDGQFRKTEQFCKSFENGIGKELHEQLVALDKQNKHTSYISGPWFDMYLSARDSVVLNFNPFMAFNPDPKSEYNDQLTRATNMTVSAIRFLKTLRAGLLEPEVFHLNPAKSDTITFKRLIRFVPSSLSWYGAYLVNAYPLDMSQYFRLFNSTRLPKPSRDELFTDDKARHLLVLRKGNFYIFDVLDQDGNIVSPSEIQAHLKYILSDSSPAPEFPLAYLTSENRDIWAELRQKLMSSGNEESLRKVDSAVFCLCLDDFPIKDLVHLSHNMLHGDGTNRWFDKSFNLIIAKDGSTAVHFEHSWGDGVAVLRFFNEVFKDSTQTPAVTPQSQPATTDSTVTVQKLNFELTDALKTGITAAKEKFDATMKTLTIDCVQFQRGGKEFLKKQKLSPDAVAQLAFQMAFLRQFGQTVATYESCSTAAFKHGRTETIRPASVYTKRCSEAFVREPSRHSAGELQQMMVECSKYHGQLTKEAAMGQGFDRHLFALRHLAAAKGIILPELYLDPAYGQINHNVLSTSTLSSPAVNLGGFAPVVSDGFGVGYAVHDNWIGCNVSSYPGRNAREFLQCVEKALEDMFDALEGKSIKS
Method: (§1) Direct interaction of CPT II WT and variants with phospholipids of the mitochondrial membrane was assessed using membrane lipid strips (Echelon Biosciences, Salt Lake City, Utah, USA). The membrane was spotted with 100 pmol of various cell membrane lipids. The assay was performed following manufacturer’s instructions with some modifications explained in the following. At first, the membrane was washed twice in phosphate buffered saline (PBS). After 1 h incubation with blocking solution (3% BSA fatty acid-free in PBS) at room temperature, the membrane was incubated with purified CPT II WT or variant (final amount 0.4 mg protein) for 2 h at 4 °C. After three washing steps, a-His-Probe (H3) mouse monoclonal antibody (Santa Cruz Biotech, Santa Cruz, CA, USA, 1:1000 dilution in PBS containing 3% BSA) was added to the membrane over night at 4 °C. The membrane was washed three times with PBS and incubated with mouse IgG horseradish peroxidase-linked whole antibody (from sheep, Amersham, Little Chalfont, Buckinghamshire, UK) for 1 h at 4 °C. The interaction was visualized by ECL Western blotting detection reagents (Amersham, Little Chalfont, Buckinghamshire, UK).

[2] = target: T2, CPT II variant P50H (Homo sapiens, UniProt P23786, P50H); test: Lipid binding assay (membrane lipid strips); details: 0.4 mg enzyme, 100 pmol lipid spots
T2 construct: made in house; host or cells: Escherichia coli BL21Gold DE
T2 sequence (P23786 26-658 P50H): T1 sequence (P23786 26-658 Y479F) with P25H, F454Y
Method: as §1

[3] = target: T3, CPT II WT (Homo sapiens, UniProt P23786); test: Lipid binding assay (membrane lipid strips); details: 0.4 mg enzyme, 100 pmol lipid spots
T3 construct: made in house; host or cells: Escherichia coli BL21Gold DE
T3 sequence (P23786 26-658): T1 sequence (P23786 26-658 Y479F) with F454Y
Method: as §1

[4] = tested on: recombinant human CPT II WT; design: method as in PMID 13534673; details: cited from earlier work

Signal for interaction on membrane lipid strips [1]: clearly proven
Signal for interaction on membrane lipid strips [2]: lowest; also recorded: clearly proven
Signal for interaction on membrane lipid strips [3]: clearly proven
Substance: Cardiolipin [CL]
Effect of CL on enzyme activity [4]: activity-increasing effect
